“Also recorded” adds a separate entry of the source.
Legend:
[1] = Plasma protein binding; format: in vitro ADME; conditions: human
[2] = Hepatocyte stability; format: in vitro ADME; conditions: Human
[3] = tested on: Mug-Chor cells; assay: 48 hours MTT cell proliferation assay, chordoma; format: cell-based
Protocol: (§1) EC359 was tested two chormoma cell lines (Mug-Chor and U-CH1) for cell viability in 48 hours MTT cell proliferation assay.

[4] = tested on: U-CH1; assay: 48 hours MTT cell proliferation assay, chordoma; format: cell-based; conditions: UCH1; U-CH1, 48 hours MTT
Protocol: as §1

[5] = Metabolite identification; format: in vitro ADME
[6] = Microsomal stability; format: in vitro ADME; conditions: Dog
[7] = Hepatocyte stability; format: in vitro ADME; conditions: Dog
[8] = Hepatocyte stability; format: in vitro ADME; conditions: Rat
[9] = Hepatocyte stability; format: in vitro ADME; conditions: Mouse
[10] = biological target: hERG membrane (Homo sapiens, UniProt Q12809); assay: Cardiotoxicity assessment (hERG), fluorescence polarization assay; format: binding
[11] = tested on: cancer-associated fibroblasts (CAFs), alpha-SMA; assay: Cytoskeletal disruption / cancer-associated fibroblasts; format: cell-based
[12] = Solubility: pION, kinetic, thermodynamic; format: physicochemical
[13] = biological target: LIF (Homo sapiens, UniProt P15018); assay: biochemical
[14] = PK study in Mouse; format: in vivo
[15] = Microsomal stability; format: in vitro ADME; conditions: Rat
[16] = tested on: High trans-fat fructose diet induced liver fibrosis; assay: High fat diet (HFD) induced liver fibrosis in rats; format: in vivo, rat
[17] = Plasma stability; format: in vitro ADME; conditions: Human
[18] = Plasma stability; format: in vitro ADME; conditions: Dog
[19] = Plasma protein binding; format: in vitro ADME; conditions: dog
[20] = Plasma protein binding; format: in vitro ADME; conditions: mouse
[21] = biological target: T1, hERG (Homo sapiens, UniProt Q12809); assay: Off-target binding study (CEREP screen); conditions: no binding up to, read-out: IC 50 of binding, hERG
T1 construct: CEREP (contract screen, per earlier reading)

[22] = Plasma protein binding; format: in vitro ADME; conditions: rat
[23] = Microsomal stability; format: in vitro ADME; conditions: Mouse
[24] = biological target: T2, GR (Homo sapiens, UniProt P04150); assay: Off-target binding study (CEREP screen); conditions: no binding up to, read-out: IC 50 of binding, GR
T2 construct: CEREP (contract screen, per earlier reading)

[25] = tested on: ID-8 ovarian syngeneic tumor; assay: ID-8 ovarian syngeneic murine tumor model
Description: CD3+T cells: T cell co-receptor helps to activate both the cytotoxic T cell (CD8+ naive T cells) and also T helper cells (CD4+ naive T cells). • 2. Tumor infiltrating leukocytes • 3. CD19 is widely expressed during all phases of B cell development until terminal differentiation into plasma cells. • 4. […] M1 macrophages: produced along with inflammatory reaction. […] CD8-positive T cells: are a critical subpopulation of MEW class I-restricted T cell and are mediators of adaptive immunity.

[26] = tested on: various cancer cells lines; assay: Cytotoxicity assays in various cancer cell lines; format: cell-based
[27] = PK study in Rat
[28] = Plasma stability; format: in vitro ADME; conditions: Rat
[29] = tested on: TNBC xenograft; assay: TNBC xenograft (EC359); format: in vivo; conditions: 1 and 5 mg/kg
Description: (§2) . Blockade of LIF-LIFR interaction reduced the STAT3 phosphorylation, mTOR and further downstream signaling cascades. […]. Our findings establish EC359 as a novel LIF/LIFR targeting drug with therapeutic perspectives for patients with advanced primary tumors. LIF/LIFR targeting may result in the blockade of JAK-STAT signaling pathway as well as cancer fibroblast associated pro invasive tumor microenvironment in regular as well as therapy resistant tumors

[30] = tested on: breast and ovarian cancer cells; assay: Combination with HDAC inhibitor, colony formation; format: cell-based
Description: Therapy resistance is a major hurdle in cancer chemo/targeted therapy. The role of LIF/LIFR signaling in inducing stemness and hypoxia is well established in different cancers. […] FIG. 16A depicts colony formation of cancer cells under various conditions. […] FIG. 16B depicts the effect of EC359 alone and in combination with SAHA on STAT 3 phosphorylation. FIG. 16C depicts the effect of EC359 alone and in combination with SAHA on induced apoptosis. FIGS. 17A and 17B depicts the effect of EC359 alone and in combination with SAHA on the growth of TNBC patient derived tumors. […] The combination of EC359 and SAHA provided a greater reduction than either […] alone.

[31] = Microsomal stability; format: in vitro ADME; conditions: Human
[32] = tested on: Caco2; assay: Caco2-permeability & efflux transporter substrate activity; format: in vitro ADME
[33] = tested on: MM51; assay: Murine syngeneic MM51 model; format: in vivo; conditions: 1 and 5 mg/kg
Description: as §2

[34] = tested on: Cytochrome P450 (1A2, 2C9, 2C19, 2D6, 3A4); assay: CYP inhibition using human liver microsomes; format: in vitro ADME; conditions: human liver microsomes (1A2, 2C9, 2C19, 2D6, 3A4)
[35] = tested on: FC 1295 and imPSCc-2 organoids; assay: Pancreatic cancer / stellate cell line derived organoid system; format: cell-based, Murine
Protocol: Most solid tumors have extensive stroma that not only facilitates the tumor progression but also impedes the delivery of the chemotherapeutic agents. Due to lack of any in-vitro system, presently it is difficult to evaluate any stroma-targeted therapies. Therefore, we developed an organoid system using labeled pancreatic cancer and stellate cell lines. Murine (FC 1295 and […]-2) cell lines cultured in different combinations were grown as an organoid system using matrigel. The organoids, starting day four were treated with either gemcitabine or EC359, a novel mifepristone derived steroidal cytotoxic agent that targets tumor stroma, or both in combination. qRT-PCR analysis of activated stroma signature genes was performed on the mRNA isolated from different treatment groups. H&E, immunohistochemistry, and western blot analysis were performed to further validate our findings. […] Our novel cell line derived organoid model can be utilized for fast, and inexpensive evaluation of stroma-targeted therapies.

[36] = tested on: triple negative breast cancer (TNBC) stem cells; assay: TNBC stem cell inhibition; format: cell-based
[37] = Plasma stability; format: in vitro ADME; conditions: Mouse
[38] = Single dose MTD; format: in vivo; conditions: 10, 25, 50 and 100 mg/kg
[39] = tested on: S. typhimurium TA98, TA100, TA1535 and E. coli WP2 uvrA + E. coli WP2[pKM101] strains; assay: Mutagenicity testing
[40] = tested on: cancer cells; assay: Colony formation in soft agar (EC359); format: cell-based

T1 sequence (Q12809 whole entry): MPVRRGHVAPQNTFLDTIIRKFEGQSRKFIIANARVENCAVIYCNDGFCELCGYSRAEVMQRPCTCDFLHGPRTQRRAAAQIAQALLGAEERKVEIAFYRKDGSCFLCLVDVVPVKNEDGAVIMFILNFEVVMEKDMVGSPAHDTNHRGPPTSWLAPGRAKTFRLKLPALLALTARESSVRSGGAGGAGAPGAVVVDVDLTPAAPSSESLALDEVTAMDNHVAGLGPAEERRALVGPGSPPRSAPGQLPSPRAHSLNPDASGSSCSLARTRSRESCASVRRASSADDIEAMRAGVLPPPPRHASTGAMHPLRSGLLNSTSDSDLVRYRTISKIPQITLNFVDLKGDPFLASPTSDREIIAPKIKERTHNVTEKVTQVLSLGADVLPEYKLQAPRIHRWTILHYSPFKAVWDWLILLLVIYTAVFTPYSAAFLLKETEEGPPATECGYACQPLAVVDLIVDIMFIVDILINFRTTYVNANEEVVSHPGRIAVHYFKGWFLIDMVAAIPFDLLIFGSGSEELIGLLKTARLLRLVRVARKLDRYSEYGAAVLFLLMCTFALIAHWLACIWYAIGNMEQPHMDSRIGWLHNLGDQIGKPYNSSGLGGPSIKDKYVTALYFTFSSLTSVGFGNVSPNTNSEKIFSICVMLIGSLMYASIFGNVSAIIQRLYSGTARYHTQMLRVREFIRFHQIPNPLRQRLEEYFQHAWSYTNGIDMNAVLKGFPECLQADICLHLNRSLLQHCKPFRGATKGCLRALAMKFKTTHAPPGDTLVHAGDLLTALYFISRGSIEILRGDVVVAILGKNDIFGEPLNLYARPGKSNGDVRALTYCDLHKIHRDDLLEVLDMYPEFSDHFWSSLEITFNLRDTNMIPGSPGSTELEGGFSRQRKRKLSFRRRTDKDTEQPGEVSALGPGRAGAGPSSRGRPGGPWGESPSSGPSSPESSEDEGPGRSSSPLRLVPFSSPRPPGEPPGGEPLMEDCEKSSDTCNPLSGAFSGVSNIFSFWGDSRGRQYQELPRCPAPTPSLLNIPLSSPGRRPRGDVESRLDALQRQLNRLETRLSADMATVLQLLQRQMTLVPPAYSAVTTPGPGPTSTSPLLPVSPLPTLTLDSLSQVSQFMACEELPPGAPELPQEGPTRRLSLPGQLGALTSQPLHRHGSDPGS
Chain of hERG membrane (Q12809 whole entry): as above
Chain of LIF (P15018 23-202): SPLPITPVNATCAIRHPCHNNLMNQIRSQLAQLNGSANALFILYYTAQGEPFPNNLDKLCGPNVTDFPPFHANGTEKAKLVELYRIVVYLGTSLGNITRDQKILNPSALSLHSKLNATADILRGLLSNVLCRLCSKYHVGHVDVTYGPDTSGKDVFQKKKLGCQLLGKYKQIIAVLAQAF
T2 sequence (P04150 whole entry): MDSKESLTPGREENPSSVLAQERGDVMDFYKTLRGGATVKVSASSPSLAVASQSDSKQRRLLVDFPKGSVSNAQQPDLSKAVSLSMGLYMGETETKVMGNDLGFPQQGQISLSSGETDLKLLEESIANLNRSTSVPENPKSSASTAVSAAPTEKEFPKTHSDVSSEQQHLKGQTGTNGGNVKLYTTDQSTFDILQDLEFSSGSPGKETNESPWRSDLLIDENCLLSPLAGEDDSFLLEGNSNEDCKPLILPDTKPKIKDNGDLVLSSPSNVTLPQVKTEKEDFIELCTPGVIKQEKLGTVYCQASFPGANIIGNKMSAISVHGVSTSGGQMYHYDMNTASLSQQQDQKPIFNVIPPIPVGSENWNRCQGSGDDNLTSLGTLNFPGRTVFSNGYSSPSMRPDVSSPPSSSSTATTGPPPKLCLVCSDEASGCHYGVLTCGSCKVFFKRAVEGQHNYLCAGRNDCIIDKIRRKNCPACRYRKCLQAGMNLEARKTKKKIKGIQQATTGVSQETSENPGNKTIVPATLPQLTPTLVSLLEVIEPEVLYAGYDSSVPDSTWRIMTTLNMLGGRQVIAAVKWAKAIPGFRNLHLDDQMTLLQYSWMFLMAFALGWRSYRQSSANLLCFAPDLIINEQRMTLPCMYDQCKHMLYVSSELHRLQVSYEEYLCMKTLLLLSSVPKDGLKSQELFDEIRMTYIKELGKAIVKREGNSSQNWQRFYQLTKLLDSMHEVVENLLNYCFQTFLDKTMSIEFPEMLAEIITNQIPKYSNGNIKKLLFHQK

SMILES: C#CC(F)(F)[C@]1(O)CC[C@H]2[C@@H]3CCC4=CC(=O)CCC4=C3[C@@H](c3ccc(-c4c(C)cc(C)cc4C)cc3)C[C@@]21C [EC359, 17α-(1,1-difluoro-2-propyn-1-yl)-17β-hydroxy-11β-[4-p-(2,4,6-trimethylphenyl)phenyl]estra-4,9-dien-3-one]
- fraction unbound [1]: 0.0002
- Hepatocyte stability [2]: Human & Mouse-moderate
- IC50 [3]: 85 nM
- IC50 [4]: 140 nM
- Major metabolic pathway [5]: Major metabolic pathway-Phase I
- glucuronide metabolites ([5]; low CL in UDPGA): metabolism; No glucuronide
- Microsomal stability [6]: Rat & Dog-low
- Hepatocyte stability [7]: Rat & Dog-low
- Hepatocyte stability [8]: Rat & Dog-low
- Hepatocyte stability [9]: Human & Mouse-moderate
- Cardiotoxicity assessment (hERG) [10]: No liability
- cytoskeletal disruption, targeting CAFs [11]: inhibition of alpha-SMA but not beta-tubulin
- solubility [12]: < 10 µg/mL
- Kd [13]: > 5000 nM
- oral bioavailability ([14]; Mouse): Orally bioavailable
- Mouse PK (p.o) ([14]; p.o): 1.0 h
- Microsomal stability [15]: Rat & Dog-low
- liver damage (HFD induced steatohepatisis) ([16]; after 4 months of HFD, rats): significantly reduced
- fibrosis, Picrosirius red staining of liver tissue ([16]; intermediary and higher dose): Fibrosis was evident
- efficacy in rat models of liver fibrosis ([16]; rat models of liver fibrosis): showed efficacy
- fibrosis, Picrosirius red staining of liver tissue ([16]; rats): minimal fibrosis
- Plasma stability (% remaining at 60 min) [17]: 113.92%
- Plasma stability (% remaining at 60 min) [18]: 105.61%
- fraction unbound [19]: 0.0017
- fraction unbound [20]: 0.0037
- IC50 [21]: > 30000 nM
- fraction unbound [22]: 0.0011
- Microsomal stability [23]: Human & Mouse-moderate
- IC50 [24]: > 10000 nM
- tumor specific infiltration of lymphocytes and macrophages ([25]; ID-8 Ovarian cancer model): enhanced
- M1 macrophages ([25]; ID-8 model): increased
- tumor specific accumulation of CD3+T, CD4+T and CD8+T cells ([25]; ID-8 model): increased
- tumor burden ([25]; ID-8 ovarian syngeneic murine tumor model): significantly reduced
- combination with PD-L1 treatment ([25]; ovarian cancer ID-8 syngeneic mice model): synergizes PD-L1 treatment
- cytotoxicity (IC50's) in cytotoxicity assays [26]: low nano-molar range
- Rat PK (iv) ([27]; iv): 6 h
- oral bioavailability ([27]; rat): high oral bioavailability; also recorded: Orally bioavailable
- half-life ([27]; rats): long half-life
- Plasma stability (% remaining at 60 min) [28]: 108.64%
- tumor burden [29]: dose dependently reduced tumor burden
- combination with HDAC inhibitor [30]: works synergistically
- Microsomal stability [31]: Human & Mouse-moderate
- Caco2-permeability [32]: Low permeable
- efflux transporter substrate activity [32]: No efflux transporter
- tumor burden [33]: dose dependently reduced tumor burden
- CYP inhibition [34]: 2D6 inhibition
- expression of markers of activated stroma (western blot) [35]: reduced the expression of markers of activated stroma including alpha-SMA, and vimentin
- relative reduction in GFP fluorescence ([35]; as compared to control): 46%
- TNBC stem cells [36]: inhibited
- Plasma stability (% remaining at 60 min) [37]: 104.91%
- Single dose MTD [38]: No toxicity observed
- Mutagenicity testing [39]: No mutagenicity
- formation of colonies in soft agar [40]: blocked formation of colonies

Source: patent publication US20200087340A1, “LIF/LIFR ANTAGONIST IN ONCOLOGY AND NONMALIGNANT DISEASES” (Evestra, Inc., priority 2018, published 2020)
